What was measured:
Experiment in all cases: radiometric filter-binding kinase assay, Kinase HotSpot
Details in all cases: compound 0.5 µM; ATP 10 µM
EPHB3 (human) = EPHB3 (human) (UniProt P54753)
PRKCI (human) = PRKCI (human) (UniProt P41743)
DAPK2 (human) = DAPK2 (human) (UniProt Q9UIK4)
MYLK2 (human) = MYLK2 (human) (UniProt Q9H1R3)
MLTK (human) = MLTK (human) (UniProt Q9NYL2)
PNCK (human) = PNCK (human) (UniProt Q6P2M8)
MAPK10 (human) = MAPK10 (human) (UniProt P53779)
RPS6KA6 KD1 KD2 (human) = RPS6KA6 KD1 KD2 (human) (UniProt Q9UK32)
YES1 (human) = YES1 (human) (UniProt P07947)
MAPKAPK5 (human) = MAPKAPK5 (human) (UniProt Q8IW41)
MAPK11 (human) = MAPK11 (human) (UniProt Q15759)
NEK1 (human) = NEK1 (human) (UniProt Q96PY6)
Chain of NEK1 (human) (Q96PY6 whole entry, looked up): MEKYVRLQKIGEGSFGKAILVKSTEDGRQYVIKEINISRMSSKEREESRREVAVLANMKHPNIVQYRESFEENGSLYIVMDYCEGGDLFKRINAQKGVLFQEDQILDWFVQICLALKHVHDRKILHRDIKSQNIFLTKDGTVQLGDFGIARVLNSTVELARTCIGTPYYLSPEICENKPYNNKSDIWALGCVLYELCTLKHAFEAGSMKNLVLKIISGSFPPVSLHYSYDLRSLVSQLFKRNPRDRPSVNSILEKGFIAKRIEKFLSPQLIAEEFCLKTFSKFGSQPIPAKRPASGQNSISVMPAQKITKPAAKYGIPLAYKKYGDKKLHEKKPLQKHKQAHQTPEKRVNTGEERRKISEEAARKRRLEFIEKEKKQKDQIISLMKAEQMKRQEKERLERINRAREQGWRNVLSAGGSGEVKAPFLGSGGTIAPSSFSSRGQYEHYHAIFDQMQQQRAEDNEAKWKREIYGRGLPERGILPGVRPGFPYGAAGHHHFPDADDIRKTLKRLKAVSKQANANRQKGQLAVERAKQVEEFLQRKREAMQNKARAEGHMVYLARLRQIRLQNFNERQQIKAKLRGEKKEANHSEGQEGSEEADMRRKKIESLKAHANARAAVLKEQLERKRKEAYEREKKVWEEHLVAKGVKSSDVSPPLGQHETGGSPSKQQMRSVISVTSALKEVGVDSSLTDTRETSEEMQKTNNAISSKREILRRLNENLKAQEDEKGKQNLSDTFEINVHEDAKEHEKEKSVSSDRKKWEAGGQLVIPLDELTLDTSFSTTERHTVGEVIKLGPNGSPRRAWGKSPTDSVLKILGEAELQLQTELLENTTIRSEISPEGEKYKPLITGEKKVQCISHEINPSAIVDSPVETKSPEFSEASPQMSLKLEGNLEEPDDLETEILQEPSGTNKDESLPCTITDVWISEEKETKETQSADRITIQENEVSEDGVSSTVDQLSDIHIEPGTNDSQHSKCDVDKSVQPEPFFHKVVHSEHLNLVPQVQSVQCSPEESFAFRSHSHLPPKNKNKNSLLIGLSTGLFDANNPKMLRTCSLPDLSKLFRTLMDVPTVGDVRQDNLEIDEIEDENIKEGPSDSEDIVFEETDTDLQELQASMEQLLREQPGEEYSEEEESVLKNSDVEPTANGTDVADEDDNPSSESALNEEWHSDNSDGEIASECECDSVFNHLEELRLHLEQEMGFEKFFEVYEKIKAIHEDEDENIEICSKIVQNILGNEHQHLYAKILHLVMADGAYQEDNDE

MYLK (human) = MYLK (human) (UniProt Q15746)
PLK1 (human) = PLK1 (human) (UniProt P53350)
GSK3B (human) = GSK3B (human) (UniProt P49841)
MST4 (human) = MST4 (human) (UniProt Q9P289)
Chain of MST4 (human) (Q9P289 whole entry, looked up): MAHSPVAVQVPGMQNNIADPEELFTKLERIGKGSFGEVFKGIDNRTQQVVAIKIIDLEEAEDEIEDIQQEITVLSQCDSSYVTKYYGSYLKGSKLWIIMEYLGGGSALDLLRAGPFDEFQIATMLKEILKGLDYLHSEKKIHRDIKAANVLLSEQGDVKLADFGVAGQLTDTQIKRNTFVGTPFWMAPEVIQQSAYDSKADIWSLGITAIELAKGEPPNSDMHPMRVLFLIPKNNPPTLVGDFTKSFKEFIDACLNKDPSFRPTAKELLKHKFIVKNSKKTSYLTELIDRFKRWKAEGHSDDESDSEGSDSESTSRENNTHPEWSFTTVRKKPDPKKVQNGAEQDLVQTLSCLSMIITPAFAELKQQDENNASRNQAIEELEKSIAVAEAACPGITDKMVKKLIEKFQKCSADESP

RET (human) = RET (human) (UniProt P07949)
RPS6KA3 KD1 KD2 (human) = RPS6KA3 KD1 KD2 (human) (UniProt P51812)
IRAK1 (human) = IRAK1 (human) (UniProt P51617)
Chain of IRAK1 (human) (P51617 whole entry, looked up): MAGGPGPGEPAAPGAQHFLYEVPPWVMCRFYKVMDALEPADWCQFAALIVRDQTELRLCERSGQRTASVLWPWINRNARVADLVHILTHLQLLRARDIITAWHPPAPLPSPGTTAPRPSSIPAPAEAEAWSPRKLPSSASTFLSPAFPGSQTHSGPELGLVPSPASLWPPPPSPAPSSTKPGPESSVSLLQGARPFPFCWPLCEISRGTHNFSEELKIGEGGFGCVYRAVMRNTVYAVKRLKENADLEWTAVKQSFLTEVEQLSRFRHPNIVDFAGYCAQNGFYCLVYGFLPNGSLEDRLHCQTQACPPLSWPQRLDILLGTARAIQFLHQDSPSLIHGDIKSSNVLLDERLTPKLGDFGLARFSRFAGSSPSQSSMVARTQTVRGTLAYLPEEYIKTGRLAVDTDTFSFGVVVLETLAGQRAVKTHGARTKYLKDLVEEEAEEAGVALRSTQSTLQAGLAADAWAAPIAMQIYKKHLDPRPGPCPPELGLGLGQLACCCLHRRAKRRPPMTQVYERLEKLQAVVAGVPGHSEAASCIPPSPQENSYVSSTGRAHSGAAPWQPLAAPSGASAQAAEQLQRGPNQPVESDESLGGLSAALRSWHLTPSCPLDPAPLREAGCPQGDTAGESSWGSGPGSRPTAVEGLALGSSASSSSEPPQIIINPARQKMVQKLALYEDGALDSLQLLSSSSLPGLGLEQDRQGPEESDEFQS

FGFR1 (human) = FGFR1 (human) (UniProt P11362)
TYRO3 (human) = TYRO3 (human) (UniProt Q06418)
MINK1 (human) = MINK1 (human) (UniProt Q8N4C8)
ERBB2 (human) = ERBB2 (human) (UniProt P04626)
Chain of ERBB2 (human) (P04626 whole entry, looked up): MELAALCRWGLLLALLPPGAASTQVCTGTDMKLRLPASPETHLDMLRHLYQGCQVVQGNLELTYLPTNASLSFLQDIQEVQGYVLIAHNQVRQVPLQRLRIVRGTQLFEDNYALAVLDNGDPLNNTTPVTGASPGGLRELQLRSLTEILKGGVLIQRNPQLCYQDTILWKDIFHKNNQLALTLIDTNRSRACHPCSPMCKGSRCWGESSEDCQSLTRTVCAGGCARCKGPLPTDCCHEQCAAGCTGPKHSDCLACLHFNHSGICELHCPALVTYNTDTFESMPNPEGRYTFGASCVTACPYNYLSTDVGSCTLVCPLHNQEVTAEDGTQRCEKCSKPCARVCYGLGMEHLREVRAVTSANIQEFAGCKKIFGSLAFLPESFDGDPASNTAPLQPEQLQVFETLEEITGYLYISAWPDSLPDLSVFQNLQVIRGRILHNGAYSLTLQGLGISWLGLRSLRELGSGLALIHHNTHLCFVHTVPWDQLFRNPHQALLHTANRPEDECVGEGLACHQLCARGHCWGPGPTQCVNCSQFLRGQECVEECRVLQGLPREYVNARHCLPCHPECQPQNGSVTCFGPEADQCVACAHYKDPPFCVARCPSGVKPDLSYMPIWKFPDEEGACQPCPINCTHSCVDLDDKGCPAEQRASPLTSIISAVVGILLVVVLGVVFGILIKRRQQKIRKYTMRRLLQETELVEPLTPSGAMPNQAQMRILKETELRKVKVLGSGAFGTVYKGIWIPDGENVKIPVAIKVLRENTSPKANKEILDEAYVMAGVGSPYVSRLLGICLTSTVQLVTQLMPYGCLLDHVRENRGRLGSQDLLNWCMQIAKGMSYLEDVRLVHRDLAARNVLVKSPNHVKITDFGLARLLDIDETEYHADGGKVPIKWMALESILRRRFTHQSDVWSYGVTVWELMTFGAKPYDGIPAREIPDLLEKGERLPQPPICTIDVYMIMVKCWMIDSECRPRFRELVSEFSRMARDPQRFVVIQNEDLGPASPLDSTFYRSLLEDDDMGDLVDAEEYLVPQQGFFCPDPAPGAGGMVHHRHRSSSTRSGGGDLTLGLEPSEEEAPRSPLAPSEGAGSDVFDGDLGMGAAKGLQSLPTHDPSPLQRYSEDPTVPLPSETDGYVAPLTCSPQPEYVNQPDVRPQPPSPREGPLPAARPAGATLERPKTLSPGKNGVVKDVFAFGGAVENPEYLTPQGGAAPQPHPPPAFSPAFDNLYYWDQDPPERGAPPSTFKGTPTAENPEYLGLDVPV

PRKCB1 (human) = PRKCB1 (human) (UniProt P05771)
STK3 (human) = STK3 (human) (UniProt Q13188)
PRKD2 (human) = PRKD2 (human) (UniProt Q9BZL6)
PHKG2 (human) = PHKG2 (human) (UniProt P15735)
PAK4 (human) = PAK4 (human) (UniProt O96013)
MET (human) = MET (human) (UniProt P08581)
CAMK1 (human) = CAMK1 (human) (UniProt Q14012)
CHEK1 (human) = CHEK1 (human) (UniProt O14757)
ACVR1B (human) = ACVR1B (human) (UniProt P36896)
CLK2 (human) = CLK2 (human) (UniProt P49760)
Chain of CLK2 (human) (P49760 whole entry, looked up): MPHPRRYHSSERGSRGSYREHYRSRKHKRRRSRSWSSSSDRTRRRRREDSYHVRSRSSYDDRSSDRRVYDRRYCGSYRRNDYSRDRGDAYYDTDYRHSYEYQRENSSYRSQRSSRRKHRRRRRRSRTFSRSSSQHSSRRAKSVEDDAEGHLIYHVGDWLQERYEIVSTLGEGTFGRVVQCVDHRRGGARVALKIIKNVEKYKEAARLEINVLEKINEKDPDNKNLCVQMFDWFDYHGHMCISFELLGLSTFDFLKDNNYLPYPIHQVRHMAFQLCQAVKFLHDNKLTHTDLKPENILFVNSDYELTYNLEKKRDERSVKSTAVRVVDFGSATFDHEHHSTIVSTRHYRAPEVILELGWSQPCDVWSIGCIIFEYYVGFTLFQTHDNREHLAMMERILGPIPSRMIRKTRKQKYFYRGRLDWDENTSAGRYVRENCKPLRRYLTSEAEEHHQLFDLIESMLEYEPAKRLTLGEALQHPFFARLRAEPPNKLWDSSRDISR

EPHA3 (human) = EPHA3 (human) (UniProt P29320)
AURKB (human) = AURKB (human) (UniProt Q96GD4)
NEK7 (human) = NEK7 (human) (UniProt Q8TDX7)
MKNK2 (human) = MKNK2 (human) (UniProt Q9HBH9)
IKBKE (human) = IKBKE (human) (UniProt Q14164)
Chain of IKBKE (human) (Q14164 whole entry, looked up): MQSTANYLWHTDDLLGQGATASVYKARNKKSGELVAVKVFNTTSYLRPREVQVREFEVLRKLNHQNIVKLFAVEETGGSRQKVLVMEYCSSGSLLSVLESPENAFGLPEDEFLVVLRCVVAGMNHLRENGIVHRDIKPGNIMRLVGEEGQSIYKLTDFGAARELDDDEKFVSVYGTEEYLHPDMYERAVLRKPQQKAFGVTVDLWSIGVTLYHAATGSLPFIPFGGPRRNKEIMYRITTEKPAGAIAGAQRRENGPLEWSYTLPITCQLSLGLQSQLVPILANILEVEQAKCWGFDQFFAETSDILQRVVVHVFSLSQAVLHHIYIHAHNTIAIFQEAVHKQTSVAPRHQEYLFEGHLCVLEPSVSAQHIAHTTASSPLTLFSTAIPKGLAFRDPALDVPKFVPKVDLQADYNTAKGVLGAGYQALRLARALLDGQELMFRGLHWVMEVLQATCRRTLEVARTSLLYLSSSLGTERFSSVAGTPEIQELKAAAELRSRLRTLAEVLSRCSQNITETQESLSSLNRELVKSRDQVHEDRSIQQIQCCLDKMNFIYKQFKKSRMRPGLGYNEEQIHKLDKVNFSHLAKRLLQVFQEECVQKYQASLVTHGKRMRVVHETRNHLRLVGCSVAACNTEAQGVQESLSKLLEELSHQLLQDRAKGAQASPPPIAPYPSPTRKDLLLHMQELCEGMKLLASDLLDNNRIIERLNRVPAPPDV

RPS6KB1 (human) = RPS6KB1 (human) (UniProt P23443)
STK25 (human) = STK25 (human) (UniProt O00506)

SMILES | residual activity (EPHB3 (human)) [%] | residual activity (PRKCI (human)) [%] | residual activity (DAPK2 (human)) [%] | residual activity (MYLK2 (human)) [%] | residual activity (MLTK (human)) [%] | residual activity (PNCK (human)) [%] | residual activity (MAPK10 (human)) [%] | residual activity (RPS6KA6 KD1 KD2 (human)) [%] | residual activity (YES1 (human)) [%] | residual activity (MAPKAPK5 (human)) [%] | residual activity (MAPK11 (human)) [%] | residual activity (NEK1 (human)) [%] | residual activity (MYLK (human)) [%] | residual activity (PLK1 (human)) [%] | residual activity (GSK3B (human)) [%] | residual activity (MST4 (human)) [%] | residual activity (RET (human)) [%] | residual activity (IRAK1 (human)) [%] | residual activity (FGFR1 (human)) [%] | residual activity (TYRO3 (human)) [%] | also measured
c1ccc(-c2n[nH]c3c2oc2ccccc23)cc1 | 84.7 | 85.9 | 71.2 | 66.6 | 96.2 | 98.6 | 93.4 | 107 | 86.1 | 103 | 95.7 | 95.2 | 86.1 | 106 | 105 | 90.6 | 78.2 | 98 | 85.9 | 87.6 | residual activity (RPS6KA3 KD1 KD2 (human)): 109%; residual activity (MINK1 (human)): 81.4%; residual activity (ERBB2 (human)): 104%; residual activity (PRKCB1 (human)): 103%; residual activity (STK3 (human)): 49.6%; residual activity (PRKD2 (human)): 86.9%; residual activity (PHKG2 (human)): 112%; residual activity (PAK4 (human)): 111%; residual activity (MET (human)): 98.4%; residual activity (CAMK1 (human)): 85.2%; residual activity (CHEK1 (human)): 117%; residual activity (ACVR1B (human)): 96.6%; residual activity (CLK2 (human)): 94.8%; residual activity (EPHA3 (human)): 104%; residual activity (AURKB (human)): 50.8%; residual activity (NEK7 (human)): 105%; residual activity (MKNK2 (human)): 70%; residual activity (IKBKE (human)): 101%; residual activity (RPS6KB1 (human)): 99.9%; residual activity (STK25 (human)): 89.6%
COc1ccc(COc2ccc(Cc3cnc(N)nc3N)cc2OC)cc1 | 91.8 | 91.6 | 95.3 | 104 | 97.4 | 98.4 | 84.4 | 101 | 94.8 | 87.5 | 98.7 | 95.6 | 95.7 | 97.1 | 97.8 | 95.5 | 108 | 123 | 108 | 110 | residual activity (RPS6KA3 KD1 KD2 (human)): 105%; residual activity (MINK1 (human)): 86.5%; residual activity (ERBB2 (human)): 106%; residual activity (PRKCB1 (human)): 102%; residual activity (STK3 (human)): 98.4%; residual activity (PRKD2 (human)): 99.4%; residual activity (PHKG2 (human)): 106%; residual activity (PAK4 (human)): 101%; residual activity (MET (human)): 76.1%; residual activity (CAMK1 (human)): 103%; residual activity (CHEK1 (human)): 107%; residual activity (ACVR1B (human)): 97.8%; residual activity (CLK2 (human)): 94.3%; residual activity (EPHA3 (human)): 109%; residual activity (AURKB (human)): 104%; residual activity (NEK7 (human)): 100%; residual activity (MKNK2 (human)): 90.6%; residual activity (IKBKE (human)): 96.7%; residual activity (RPS6KB1 (human)): 89.5%; residual activity (STK25 (human)): 97%
Cc1ccc(NC2=CC(=O)c3sc(C)nc3C2=O)cc1 | 89.2 | 96.9 | 91.9 | 92.8 | 94 | 95.3 | 105 | 73.4 | 86.7 | 108 | 102 | 76.5 | 90.1 | 86.8 | 82 | 86.6 | 97.6 | 108 | 85.3 | 95.3 | residual activity (RPS6KA3 KD1 KD2 (human)): 104%; residual activity (MINK1 (human)): 101%; residual activity (ERBB2 (human)): 94.2%; residual activity (PRKCB1 (human)): 95.7%; residual activity (STK3 (human)): 105%; residual activity (PRKD2 (human)): 87.7%; residual activity (PHKG2 (human)): 96.3%; residual activity (PAK4 (human)): 105%; residual activity (MET (human)): 99.7%; residual activity (CAMK1 (human)): 87.6%; residual activity (CHEK1 (human)): 91.1%; residual activity (ACVR1B (human)): 110%; residual activity (CLK2 (human)): 83.6%; residual activity (EPHA3 (human)): 96.6%; residual activity (AURKB (human)): 89.8%; residual activity (NEK7 (human)): 96.9%; residual activity (MKNK2 (human)): 89%; residual activity (IKBKE (human)): 102%; residual activity (RPS6KB1 (human)): 97.2%; residual activity (STK25 (human)): 93.4%
CC(=O)c1ccc(N2CCOCC2)cc1O | 92.3 | 96.3 | 106 | 98.6 | 97.8 | 103 | 78.4 | 95.1 | 100 | 96.9 | 99.8 | 114 | 91.1 | 94.3 | 122 | 99.5 | 103 | 111 | 91.4 | 89.1 | residual activity (RPS6KA3 KD1 KD2 (human)): 101%; residual activity (MINK1 (human)): 94.3%; residual activity (ERBB2 (human)): 98.2%; residual activity (PRKCB1 (human)): 96.3%; residual activity (STK3 (human)): 98.9%; residual activity (PRKD2 (human)): 97.4%; residual activity (PHKG2 (human)): 98.1%; residual activity (PAK4 (human)): 103%; residual activity (MET (human)): 122%; residual activity (CAMK1 (human)): 102%; residual activity (CHEK1 (human)): 103%; residual activity (ACVR1B (human)): 100%; residual activity (CLK2 (human)): 102%; residual activity (EPHA3 (human)): 108%; residual activity (AURKB (human)): 91.4%; residual activity (NEK7 (human)): 101%; residual activity (MKNK2 (human)): 90.7%; residual activity (IKBKE (human)): 105%; residual activity (RPS6KB1 (human)): 95.2%; residual activity (STK25 (human)): 90.9%
O=S(=O)(c1cccc2cnccc12)N1CCCNCC1 | 95.4 | 87.2 | 83.6 | 99.6 | 101 | 91.6 | 85.3 | 94 | 96.5 | 72.6 | 91.9 | 90.3 | 97.4 | 103 | 102 | 90 | 97.8 | 86.2 | 94.6 | 87.9 | residual activity (MINK1 (human)): 96.6%; residual activity (ERBB2 (human)): 108%; residual activity (PRKCB1 (human)): 94.6%; residual activity (STK3 (human)): 90%; residual activity (PRKD2 (human)): 85%; residual activity (PHKG2 (human)): 95.4%; residual activity (CAMK1 (human)): 99.4%; residual activity (ACVR1B (human)): 100%; residual activity (CLK2 (human)): 95.1%; residual activity (EPHA3 (human)): 105%; residual activity (AURKB (human)): 98.8%; residual activity (NEK7 (human)): 97.5%; residual activity (MKNK2 (human)): 72%; residual activity (RPS6KB1 (human)): 76.6%; residual activity (STK25 (human)): 84.8%

Source: the kinase profiling compilation of Christmann-Franck et al. (2016)
